According to ChEMBL document CHEMBL1150467, “The identification of a novel renin inhibitor of equivalent efficacy following oral or intravenous administration” (Bioorg Med Chem Lett, 1994):

target: T1, Renin (Homo sapiens, UniProt P00797); assay: […]; format: cell-free, Plasma
T1 sequence (P00797 whole entry): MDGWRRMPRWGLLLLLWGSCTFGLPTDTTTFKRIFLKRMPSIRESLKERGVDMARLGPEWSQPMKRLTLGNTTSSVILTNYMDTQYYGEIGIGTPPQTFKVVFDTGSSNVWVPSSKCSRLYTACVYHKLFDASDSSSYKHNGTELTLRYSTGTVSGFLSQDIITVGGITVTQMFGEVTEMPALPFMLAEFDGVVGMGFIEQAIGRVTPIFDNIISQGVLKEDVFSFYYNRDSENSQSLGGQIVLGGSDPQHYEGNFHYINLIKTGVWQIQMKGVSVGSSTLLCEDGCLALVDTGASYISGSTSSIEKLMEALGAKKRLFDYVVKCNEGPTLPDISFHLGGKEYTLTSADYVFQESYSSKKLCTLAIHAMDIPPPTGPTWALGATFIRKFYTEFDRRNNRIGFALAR

Row | Compound | IC50
1 | CC(C)C[C@H](NC(=O)[C@H](Cc1ccccc1)NC(=O)CC1CS(=O)(=O)c2ccccc21)C(=O)N[C@@H](CC1CCCCC1)[C@@H](O)CC(=O)NCCn1ccnc1 (some centres not stated) | 41 nM
2 | CC(C)C[C@H](NC(=O)[C@H](Cc1ccccc1)NC(=O)CC1CS(=O)(=O)c2ccccc21)C(=O)N[C@@H](CC1CCCCC1)[C@@H](O)CC(=O)NCCCN(C)C (some centres not stated) | 95 nM
3 | CC(C)C[C@H](NC(=O)[C@H](Cc1ccccc1)NC(=O)CC1CS(=O)(=O)c2ccccc21)C(=O)N[C@@H](CC1CCCCC1)[C@@H](O)CC(=O)NCCCc1cccnc1 (some centres not stated) | 34 nM
4 | CC(C)C[C@H](NC(=O)[C@H](Cc1ccccc1)NC(=O)CC1CS(=O)(=O)c2ccccc21)C(=O)N[C@@H](CC1CCCCC1)[C@@H](O)CC(=O)NCCCC(=O)O (some centres not stated) | 55 nM
5 | CC(C)C[C@H](NC(=O)[C@H](Cc1ccccc1)NC(=O)CC1CS(=O)(=O)c2ccccc21)C(=O)N[C@@H](CC1CCCCC1)[C@@H](O)CC(=O)NCCN1CCOCC1 (some centres not stated) | 170 nM
6 | CC(C)C[C@H](NC(=O)[C@H](Cc1ccccc1)NC(=O)CN1C(=O)CSc2ccncc21)C(=O)N[C@@H](CC1CCCCC1)[C@@H](O)CC(=O)NCCCn1ccnc1 | 38 nM

The next molecules have a lower IC50 than those just listed; values first:

Row | IC50 | Compound
7 | 20 nM | CC(C)C[C@H](NC(=O)[C@H](Cc1ccccc1)NC(=O)CCN1C(=O)COc2ccncc21)C(=O)N[C@@H](CC1CCCCC1)[C@@H](O)CC(=O)NCCCn1ccnc1
8 | 14 nM | CC(C)C[C@H](NC(=O)[C@H](Cc1ccccc1)NC(=O)CCCN1C(=O)CSc2ccncc21)C(=O)N[C@@H](CC1CCCCC1)[C@@H](O)CC(=O)NCCCn1ccnc1
9 | 12 nM | CC(C)C[C@H](NC(=O)[C@H](Cc1ccccc1)NC(=O)CC1CS(=O)(=O)c2ccccc21)C(=O)N[C@@H](CC1CCCCC1)[C@@H](O)CC(=O)NCCCn1ccnc1 (some centres not stated)
10 | 10 nM | CC(C)CCNC(=O)C[C@H](O)[C@H](CC1CCCCC1)NC(=O)[C@H](CC(C)C)NC(=O)[C@H](Cc1ccccc1)NC(=O)CC1CS(=O)(=O)c2ccccc21 (some centres not stated)
11 | 8 nM | CC(C)C[C@H](NC(=O)[C@H](Cc1ccccc1)NC(=O)CCN1C(=O)CS(=O)(=O)c2ccncc21)C(=O)N[C@@H](CC1CCCCC1)[C@@H](O)CC(=O)NCCCn1ccnc1
12 | 4 nM | CC(C)C[C@H](NC(=O)[C@H](Cc1ccccc1)NC(=O)CCN1C(=O)CSc2cnccc21)C(=O)N[C@@H](CC1CCCCC1)[C@@H](O)CC(=O)NCCCn1ccnc1
